# Test results reported in patent publication US20050256003A1, “Novel herbicides” (priority 2002, published 2005).
# Columns and labels:
# Type in all cases: in vivo
# selected test plants = assay: Post-emergence action in a different test arrangement (Table B3); design: key to Post-emergence action (different test arrangement), Nasturtium / Post-emergence action (different test arrangement), Stellaria / Post-emergence action (different test arrangement), Solanum: 10=total damage; 0=no action; Ratings of from 10 to 7 (especially from 10 to 8) indicate good to very good herbicidal action; conditions: 250 g a.i./ha
# [1] = tested on: monocotyledonous and dicotyledonous test plants; assay: Herbicidal action prior to emergence of the plants (pre-emergence action); design: key: 10=total damage; 0=no action; Ratings of from 10 to 7 (especially from 10 to 8) indicate good to very good herbicidal action; conditions: 250 g a.i./ha, pre-emergence spray, evaluated after 3 weeks, scale 10=total damage, 0=no action
# Description: Herbicidal Action Prior to Emergence of the Plants (Pre-Emergence Action)
# Monocotyledonous and dicotyledonous test plants are sown in standard soil in plastic pots Immediately after sowing, the test compounds, in the form of an aqueous suspension (prepared from a 25% wettable powder (Example F3, b) according to WO 97/34485) or in the form of an emulsion (prepared from a 25% emulsifiable concentrate (Example F1, c)), are applied by spraying in a concentration corresponding to 125 g or 250 g of active ingredient/ha (500 litres of water/ha). The test plants are then grown in a greenhouse under optimum conditions. After a test duration of 3 weeks, the test is evaluated in accordance with a scale of nine ratings (10=total damage, 0=no action). Ratings of from 10 to 7 (especially from 10 to 8) indicate good to very good herbicidal action.
# [2] = tested on: monocotyledonous and dicotyledonous test plants; assay: Post-emergence herbicidal action; design: key: 10=total damage; 0=no action; Ratings of from 10 to 7 (especially from 10 to 8) indicate good to very good herbicidal action; conditions: 250 g a.i./ha, about 18 days, rating 0-10
# Method: Post-Emergence Herbicidal Action
# In a greenhouse, monocotyledonous and dicotyledonous test plants are grown in standard soil in plastic pots and at the 4- to 6-leaf stage are sprayed with an aqueous suspension of the test compounds of formula I prepared from a 25% wettable powder (Example F3, b) according to WO 97/34485) or with an emulsion of the test compounds of formula I prepared from a 25% emulsifiable concentrate (Example F1, c) according to WO 97/34485), in a concentration corresponding to 125 g or 250 g of active ingredient/ha (500 litres of water/ha). The test plants are then grown on in a greenhouse under optimum conditions. After a test duration of about 18 days, the test is evaluated in accordance with a scale of nine ratings (10=total damage, 0=no action). Ratings of from 10 to 7 (especially from 10 to 8) indicate good to very good herbicidal action.
SMILES,"Post-emergence action (different test arrangement), Amaranthus (selected test plants)","Post-emergence action (different test arrangement), Nasturtium (selected test plants)","Post-emergence action (different test arrangement), Solanum (selected test plants)","Post-emergence action (different test arrangement), Stellaria (selected test plants)",Pre-emergence action: Abutilon (rating) [1],Pre-emergence action: Amaranthus (rating) [1],Pre-emergence action: Chenopodium (rating) [1],Pre-emergence action: Cyperus (rating) [1],Pre-emergence action: Echinochloa (rating) [1],Pre-emergence action: Panicum (rating) [1],Pre-emergence action: Scirpus (rating) [1],Pre-emergence action: Sida (rating) [1],"Post-emergence action, Amaranthus [2]","Post-emergence action, Chenopodium [2]","Post-emergence action, Echinochloa [2]","Post-emergence action, Euphorbia [2]","Post-emergence action, Ipomea [2]","Post-emergence action, Sinapis [2]","Post-emergence action, Stellaria [2]","Post-emergence action, Xanthium [2]"
CC1CCN(Cc2nc(C(F)(F)F)ccc2C(=O)c2cnn(C)c2O)C1=O (stereo not shown) [Compound B1.226],8,10,9,9,–,–,–,–,–,–,–,–,–,–,–,–,–,–,–,–
CC(C)N1CC(=O)N(Cc2nc(C(F)(F)F)ccc2C(=O)c2cnn(C)c2O)C1=O [Compound B1.170],–,–,–,–,9,9,10,8,9,9,9,9,9,9,9,7,0,9,9,6
COc1nn(Cc2nc(C(F)(F)F)ccc2C(=O)C2=C(O)CCCC2=O)c(=O)n1C [Compound A1.025],9,9,9,9,–,–,–,–,–,–,–,–,–,–,–,–,–,–,–,–
Cc1nn(Cc2nc(C(F)(F)F)ccc2C(=O)C2=C(O)C(C)(C)C(=O)C(C)(C)C2=O)c(=O)o1 [Compound A8.008],–,–,–,–,10,–,10,0,10,10,0,10,9,8,8,8,9,7,6,9
Cc1nn(Cc2nc(C(F)(F)F)ccc2C(=O)C2=C(O)CCCC2=O)c(=O)s1 [Compound A1.079],–,–,–,–,10,4,8,8,5,9,10,10,9,9,7,8,8,9,9,7
Cn1ncn(Cc2nc(C(F)(F)F)ccc2C(=O)C2=C(O)C3CCC(C3)C2=O)c1=O (stereo not shown) [Compound A6.073],–,–,–,–,10,9,10,7,0,10,10,9,10,10,9,9,10,10,9,9
Cc1nn(CCOCc2nc(C(F)(F)F)ccc2C(=O)C2=C(O)C3CCC(C3)C2=O)c(=O)o1 (stereo not shown) [Compound A6.100],–,–,–,–,10,10,10,6,10,10,10,10,9,10,7,7,9,8,9,7
Cn1ncn(Cc2nc(C(F)(F)F)ccc2C(=O)C2=C(O)C(C)(C)C(=O)C(C)(C)C2=O)c1=O [Compound A8.080],–,–,–,–,10,0,10,0,10,9,8,9,9,10,9,9,10,10,10,8
